# Values of other authors, collected in patent US6369001B1, “Microemulsion coformulation of a graminicide and a water-soluble herbicide” (Monsanto Technology, LLC, priority 1999, dated 2002).
# “Also recorded” adds a separate entry of the source.
# Conditions: aqueous medium
row,SMILES,pH dependence of chemical stability / hydrolysis in water
1,COC(=O)C(C)Oc1ccc(Oc2ccc(Cl)cc2Cl)cc1 (stereo not drawn) [diclofop-methyl],undergoes hydrolysis more readily in an alkaline medium
2,CCOC(=O)[C@@H](C)Oc1ccc(Oc2cnc3cc(Cl)ccc3n2)cc1 [quizalofop-P-ethyl],hydrolysis occurring most rapidly when pH is in the alkaline range; also recorded: greater chemical stability in acid to neutral than in alkaline media
3,CCO/N=C(\CC)C1=C(O)CC(c2c(C)cc(C)cc2C)CC1=O (stereo not drawn) [tralkoxydim],especially unstable in an acid medium; also recorded: much more stable at pH 9 than at pH 5
